Laboratory results taken from patent US20260199484A1, “PROTAC DEGRADERS OF MLLT1 AND/OR MLLT3” (DARK BLUE THERAPEUTICS LTD, priority 2024, published 2026).

Assays:
MV4-11 cells = assay: MV4-11 cellular proliferative assay, Assay Format A (CellTiter-Glo, 120 h); assay type: cell-based; conditions: Homo sapiens, Assay format A, 120 h, read-out: IC50 (MV4-11 cellular proliferative assay)
Experimental: An MV4-11 proliferation assay was used to test the ability of compounds to reduce cell viability. MV4-11 cells (ATCC #CRL9591) were grown in IMDM medium (11510596, Gibco) supplemented with 10% fetal bovine serum (F7524, Gibco) and 1% Penicillin/Streptomycin (15140-122, Gibco) at 37° C. with 5% CO2. Cells were seeded in 384-well Elplasia plates (4447, Corning) at a density of 50 cells/well and treated with vehicle (DMSO) or compounds (10 serial semi-log dilutions, 30 μM as top concentration).
After 120 hours of treatment, cells were incubated for 10 min at RT with the CellTiter-Glo (CTG) reagent (G7571, Promega). Measurement of the luminescence signal was performed on a microplate reader (Ensight, PerkinElmer). CTG reagent measures the amount of ATP, which is directly proportional to the number of cells, to determine the number of viable cells in culture.
The data were analysed as follows:
[formula] • where x is the measured raw signal value of a well, (cr) is the median of the measured signal values for the Central Reference (DMSO) wells on a plate, (sr) is the median of the measured signal values for the Scale Reference (reference compound) wells on a plate.
[formula] • where the experimental set-up assumes the Hill parameters in certain ranges: S0~Central Reference (CR) from normalization (=Bottom), Sinf~Scale Reference (SR) from normalization (=Top), nHill ~1, AC50~within the measured concentration range.

MLLT1 = target: T1, MLLT1 (Homo sapiens, UniProt Q03111); assay: MLLT1 degradation assay in MV4-11 cells (JESS, 24 h); assay type: cell-based; parameters: endogenous in cells; host or cells: MV4-11 (ATCC CRL-9591); conditions: vs DMSO control
T1 sequence (Q03111 1-559): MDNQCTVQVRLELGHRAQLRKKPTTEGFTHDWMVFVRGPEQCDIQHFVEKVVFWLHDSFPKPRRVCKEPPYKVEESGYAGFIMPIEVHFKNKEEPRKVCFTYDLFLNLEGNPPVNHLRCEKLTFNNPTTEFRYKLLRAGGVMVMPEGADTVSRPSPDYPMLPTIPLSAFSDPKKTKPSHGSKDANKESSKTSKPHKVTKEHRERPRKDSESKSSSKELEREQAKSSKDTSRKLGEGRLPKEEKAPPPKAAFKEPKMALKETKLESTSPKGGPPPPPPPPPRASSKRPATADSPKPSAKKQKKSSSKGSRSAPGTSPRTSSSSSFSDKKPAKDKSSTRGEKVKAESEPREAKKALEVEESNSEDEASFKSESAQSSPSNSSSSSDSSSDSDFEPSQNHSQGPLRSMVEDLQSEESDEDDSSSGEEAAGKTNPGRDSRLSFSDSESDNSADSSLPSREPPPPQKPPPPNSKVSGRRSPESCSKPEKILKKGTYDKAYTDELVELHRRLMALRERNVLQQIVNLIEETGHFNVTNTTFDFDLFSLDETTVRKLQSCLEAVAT
How it was run: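 MV4-11 cells treated at 1000, 100 and 10 nM (0.1% DMSO) for 24 h at 37° C; lysates (4 ug protein) run on JESS capillary immunoassay with MLLT1 and GAPDH antibodies. Peak areas give % degradation versus DMSO, binned A (≥75%) to D (<25%).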

| Structure (SMILES) | IC50 (MV4-11 cells) [µM] | MLLT1% Degradation @ 0.01 μM (MLLT1) | MLLT1% Degradation @ 0.1 μM (MLLT1) | MLLT1% Degradation @ 1 μM (MLLT1) |
| --- | --- | --- | --- | --- |
| Cc1nn(CCCCCN2CCN(c3cc4c(cc3F)C(=O)N(C3CCC(=O)NC3=O)C4=O)CC2)c2cc(C(=O)Nc3cc4[nH]c([C@H]5CCCN5C)cc4cn3)ccc12 (stereo partly drawn) [Example 23, 1-(5-(4-(2-(2,6-dioxopiperidin-3-yl)-6-fluoro-1,3-dioxoisoindolin-5-yl)piperazin-1-yl)pentyl)-3-methyl-N-(2-((R)-1-methylpyrrolidin-2-yl)-1H-pyrrolo[3,2-c]pyridin-6-yl)-1H-indazole-6-carboxamide] | < 0.1 | A (Category A: A≥75% degradation) | A (Category A: A≥75% degradation) | A (Category A: A≥75% degradation) |
| Cc1nn(CCOCCOCCNc2cccc3c2C(=O)N(C2CCC(=O)NC2=O)C3=O)c2cc(C(=O)Nc3cc4[nH]c([C@H]5CCCN5C)cc4cn3)ccc12 (stereo partly drawn) [Example 25, 1-(2-(2-(2-((2-(2,6-dioxopiperidin-3-yl)-1,3-dioxoisoindolin-4-yl)amino)ethoxy)ethoxy)ethyl)-3-methyl-N-(2-((R)-1-methylpyrrolidin-2-yl)-1H-pyrrolo[3,2-c]pyridin-6-yl)-1H-indazole-6-carboxamide] | < 0.1 |  | A (Category A: A≥75% degradation) | A (Category A: A≥75% degradation) |
| Cc1nn(CCOCCNc2cccc3c2C(=O)N(C2CCC(=O)NC2=O)C3=O)c2cc(C(=O)Nc3cc4[nH]c([C@H]5CCCN5C)cc4cn3)ccc12 (stereo partly drawn) [Example 26, 1-(2-(2-((2-(2,6-dioxopiperidin-3-yl)-1,3-dioxoisoindolin-4-yl)amino)ethoxy)ethyl)-3-methyl-N-(2-((R)-1-methylpyrrolidin-2-yl)-1H-pyrrolo[3,2-c]pyridin-6-yl)-1H-indazole-6-carboxamide] | < 0.1 |  | A (Category A: A≥75% degradation) | A (Category A: A≥75% degradation) |
| Cc1nn(CCCC2CCN(c3cccc4c3C(=O)N(C3CCC(=O)NC3=O)C4=O)CC2)c2cc(C(=O)Nc3cc4[nH]c([C@H]5CCCN5C)cc4cn3)ccc12 (stereo partly drawn) [Example 27, 1-(3-(1-(2-(2,6-dioxopiperidin-3-yl)-1,3-dioxoisoindolin-4-yl)piperidin-4-yl)propyl)-3-methyl-N-(2-((R)-1-methylpyrrolidin-2-yl)-1H-pyrrolo[3,2-c]pyridin-6-yl)-1H-indazole-6-carboxamide] | < 0.1 | A (Category A: A≥75% degradation) | A (Category A: A≥75% degradation) | A (Category A: A≥75% degradation) |
| Cc1nn(CCCCCC2CCN(c3cccc4c3C(=O)N(C3CCC(=O)NC3=O)C4=O)CC2)c2cc(C(=O)Nc3cc4[nH]c([C@H]5CCCN5C)cc4cn3)ccc12 (stereo partly drawn) [Example 29, 1-(5-(1-(2-(2,6-dioxopiperidin-3-yl)-1,3-dioxoisoindolin-4-yl)piperidin-4-yl)pentyl)-3-methyl-N-(2-((R)-1-methylpyrrolidin-2-yl)-1H-pyrrolo[3,2-c]pyridin-6-yl)-1H-indazole-6-carboxamide] | < 0.1 | B (Category B: 50%≤B<75% degradation) | A (Category A: A≥75% degradation) | A (Category A: A≥75% degradation) |
| Cc1nn(CCCCCC#Cc2cccc3c2CN(C2CCC(=O)NC2=O)C3=O)c2cc(C(=O)Nc3cc4[nH]c([C@H]5CCCN5C)cc4cn3)ccc12 (stereo partly drawn) [Example 30, 1-(7-(2-(2,6-dioxopiperidin-3-yl)-1-oxoisoindolin-4-yl)hept-6-yn-1-yl)-3-methyl-N-(2-((R)-1-methylpyrrolidin-2-yl)-1H-pyrrolo [3,2-c]pyridin-6-yl)-1H-indazole-6-carboxamide] | < 0.1 | A (Category A: A≥75% degradation) | A (Category A: A≥75% degradation) | A (Category A: A≥75% degradation) |
| Cc1nn(CCCOCC#Cc2cccc3c2CN(C2CCC(=O)NC2=O)C3=O)c2cc(C(=O)Nc3cc4[nH]c([C@H]5CCCN5C)cc4cn3)ccc12 (stereo partly drawn) [Example 31, 1-(3-((3-(2-(2,6-dioxopiperidin-3-yl)-1-oxoisoindolin-4-yl)prop-2-yn-1-yl)oxy)propyl)-3-methyl-N-(2-((R)-1-methylpyrrolidin-2-yl)-1H-pyrrolo[3,2-c]pyridin-6-yl)-1H-indazole-6-carboxamide] | < 0.1 | C (Category C: 25%≤C<50% degradation) | B (Category B: 50%≤B<75% degradation) | A (Category A: A≥75% degradation) |

More lines, now with the values ahead:

| IC50 (MV4-11 cells) [µM] | MLLT1% Degradation @ 0.01 μM (MLLT1) | MLLT1% Degradation @ 0.1 μM (MLLT1) | MLLT1% Degradation @ 1 μM (MLLT1) | Structure (SMILES) |
| --- | --- | --- | --- | --- |
| < 0.1 | D (Category D: D<25% degradation) | A (Category A: A≥75% degradation) | A (Category A: A≥75% degradation) | Cc1nn(CCCCCCCCNc2ccc3c(c2)C(=O)N(C2CCC(=O)NC2=O)C3=O)c2cc(C(=O)Nc3cc4[nH]c([C@@H]5CCCN5C)cc4cn3)ccc12 (stereo partly drawn) [Example 15, 1-(8-{[2-(2,6-dioxopiperidin-3-yl)-1,3-dioxoisoindol-5-yl]amino}octyl)-3-methyl-N-{2-[(2S)-1-methylpyrrolidin-2-yl]-1H-pyrrolo[3,2-c]pyridin-6-yl}indazole-6-carboxamide] |
| < 0.1 | A (Category A: A≥75% degradation) | A (Category A: A≥75% degradation) | A (Category A: A≥75% degradation) | Cc1nn(CCCCCCCCNc2cccc3c2CN(C2CCC(=O)NC2=O)C3=O)c2cc(C(=O)Nc3cc4[nH]c([C@H]5CCCN5C)cc4cn3)ccc12 (stereo partly drawn) [Example 16, 1-(8-{[2-(2,6-dioxopiperidin-3-yl)-1-oxo-3H-isoindol-4-yl]amino}octyl)-3-methyl-N-{2-[(2R)-1-methylpyrrolidin-2-yl]-1H-pyrrolo[3,2-c]pyridin-6-yl}indazole-6-carboxamide] |
| < 0.1 | A (Category A: A≥75% degradation) | A (Category A: A≥75% degradation) | A (Category A: A≥75% degradation) | Cc1nn(CCCCCCCCNc2cccc3c2C(=O)N(C2CCC(=O)NC2=O)C3=O)c2cc(C(=O)Nc3cc4[nH]c([C@H]5CCCN5C)c(Cl)c4cn3)ccc12 (stereo partly drawn) [Example 18, N-(3-chloro-2-((R)-1-methylpyrrolidin-2-yl)-1H-pyrrolo[3,2-c]pyridin-6-yl)-1-(8-((2-(2,6-dioxopiperidin-3-yl)-1,3-dioxoisoindolin-4-yl)amino)octyl)-3-methyl-1H-indazole-6-carboxamide] |
| < 0.1 | A (Category A: A≥75% degradation) | A (Category A: A≥75% degradation) | A (Category A: A≥75% degradation) | Cc1nn(CCCCNc2cccc3c2C(=O)N(C2CCC(=O)NC2=O)C3=O)c2cc(C(=O)Nc3cc4[nH]c([C@H]5CCCN5C)cc4cn3)ccc12 (stereo partly drawn) [Example 21, 1-(4-((2-(2,6-dioxopiperidin-3-yl)-1,3-dioxoisoindolin-4-yl)amino)butyl)-3-methyl-N-(2-((R)-1-methylpyrrolidin-2-yl)-1H-pyrrolo[3,2-c]pyridin-6-yl)-1H-indazole-6-carboxamide] |
| < 0.1 | A (Category A: A≥75% degradation) | A (Category A: A≥75% degradation) | A (Category A: A≥75% degradation) | Cc1nn(CCCCCCNc2cccc3c2C(=O)N(C2CCC(=O)NC2=O)C3=O)c2cc(C(=O)Nc3cc4[nH]c([C@H]5CCCN5C)cc4cn3)ccc12 (stereo partly drawn) [Example 22, 1-(6-{[2-(2,6-dioxopiperidin-3-yl)-1,3-dioxoisoindol-4-yl]amino}hexyl)-3-methyl-N-{2-[(2R)-1-methylpyrrolidin-2-yl]-1H-pyrrolo[3,2-c]pyridin-6-yl}indazole-6-carboxamide] |
